Assays:
[1] = tested on: murine primary bone marrow cells; assay: Multipotential colonies (CFU-GEMM) from murine bone marrow cells, colony and differential counts; format: cell-based, mouse; details: for megakaryocyte formation and development: 8 days treatment
Experimental: Stimulation of Hematopoiesis from Bone Marrow (BM) Cells in Culture:
Proliferation of megakaryocytes in multipotential colonies (CFU-GEMM) from murine Bone Marrow cells: Primary bone marrow cells (1×10^5 per ml) from 8-12 week-old C3H/HeJ mice were grown in serum-free methyl cellulose-IMDM medium for 8-9 days at 5% CO2, 95% air, at 37° C. The medium, appropriate for the growth of multipotential colonies (CFU-GEMM), contained 1% BSA (Sigma), 10^−4 M thioglycerol (Sigma), 2.8×10^−4 M human transferrin (TF, Biological industries, Israel), 10% WEHI-CM as a source of IL-3 and 2 units per ml erythropoietin (rhEPO, R & D Systems, Minneapolis). Colonies were scored after 8-9 days using an Olympus dark field microscope. They were picked with a micropipette, cytocentrifuged and stained with May-Grunwald-Giemsa for differential counts. At least 700 cells were counted for each preparation. […]
Proliferation of Macrophage cells in CFU-GEMM: Multipotent (CFU-GEMM colonies grown from primary bone marrow cells as described for the assay of megakaryocyte proliferation above were collected, stained and counted for macrophage cells. At least 700 cells were counted for each preparation.
Proliferation of Red Blood Cells in CFU-GEMM: Multipotent (CFU-GEMM) colonies grown from primary bone marrow cells as described for the assay of megakaryocyte proliferation above were collected, stained and counted for red blood cells. At least 700 cells were counted for each preparation. […]

[2] = tested on: Non-Obese Diabetic (NOD) mice; assay: Intraperitoneal Glucose Tolerance Test (IPGTT) in NOD mice; format: in vivo, mouse; design: IPGT TEST 0 min. (pre-load), plasma glucose: unit not given here; details: for IPGT test result (in words): healthy NOD mice after 25 weeks; for IPGT TEST 0 min. (pre-load), plasma glucose: individual healthy NOD mice, 25 weeks after peptides
Experimental: Intraperitoneal Glucose Tolerance Test (IPGTT):
The glucose tolerance test is the definitive method for investigating glucose metabolism and diabetic tendencies in mammals. Twenty five (25) weeks after receiving Synthetic peptides derived from casein, response to a glucose load was assessed with an intraperitoneal glucose tolerance test. Glucose injection consisted of 1 g/kg body weight. Glycemic values were determined from blood drawn prior to test (0 minutes) and 60 minutes after loading.

[3] = tested on: female C57B1/6j mice fed an atherogenic diet; assay: Diet-induced hypercholesterol/hyperlipidemia in C57B1/6j mice; format: in vivo; details: one week post 1 mg per mouse i.p.; diet control 52
Experimental: The ability of synthetic casein derived peptides to reduce cholesterol levels in 7-week old female C57B1/6j mice was assessed after feeding an atherogenic diet. The mice were divided into groups of 8. One control group was fed a normal diet. A second control group was fed the modified Thomas Hartroft diet containing cholate (#TD 88051: Teklad, Madison, Wis.) [Gerber, D. W. et al. (2000), Journal of Lipid Research. 42, 2001]. The remaining experimental groups were all fed the modified Thomas Hartroft diet.
Cholesterol blood levels were determined according to Roche Cholesterol Assay based on Roeschlou & Allin enzymatic method (Roche, Inc., Germany).

[4] = tested on: Non-Obese Diabetic (NOD) mice; assay: Prevention of glucosuria / Juvenile (Type I, IDDM) Diabetes in NOD mice; format: in vivo, mouse; details: 100 μg once weekly for 5 weeks, evaluated after 25 weeks; for Healthy/Total* (healthy and well = sugar not detected in urine): female NOD mice
Experimental: Juvenile (Type I, IDDM) Diabetes in Non-Obese Diabetic (NOD) Mice:
Peptides Derived from Natural Casein:
NOD mice are a commonly used model for research of autoimmune disease and human Juvenile Diabetes. Six week old female NOD mice received either one or two injections per week of 100 μg of peptides derived from natural casein, for a total of 5 or 11 treatments. Control mice received no treatment. The severity of disease was determined according to glucosuria, which was measured using Combi test sticks [Gross, D. J. et al. (1994), Diabetology, 37:1195]. Results were expressed as the percent of glucosuria-free mice in each sample over a 365-day period.
Synthetic Peptides Derived from Casein:
In another experiment, 6 week old female NOD mice received one injection per week of 100 μg of Synthetic peptides derived from casein for a total of 5 treatments. Control mice received no treatment. Results were expressed as the number of healthy mice in the various treated groups.

HIV-1IIIB [5] = assay: Inhibition of HIV-1 infection of CEM lymphocytes (cell counts, P24 antigen assay); format: cell-based; details: for cell counts: infected control 1.06×10^6; for HIV-1 infection level, P24 antigen: 7 days post infection, control 0.52
Experimental: (§1) Inhibition of in vitro HIV infection of human lymphocyte cells:
(§2) Peptides: Peptides (either peptides derived from natural casein or synthetic peptides derived from casein (1-25 amino acids in length, see table 3) supplied as lyophilized powder were resuspended in RPMI complete medium and added to cell cultures at a final concentrations of 50 to 1000 μg per ml.
(§3) Cells: Several types of freshly isolated human cells (primary cells) and cell lines are known to be susceptible to in vitro HIV-1 infection, although essentially any cell displaying even low surface levels of the CD4 molecule can be considered a potential target for HIV-1 infection. Two commonly used human cell lines which are highly sensitive for HIV-1 infection were chosen, CEM and Sup-T1.
CEM is a human T4-lymphoblastoid cell line initially derived by G. E. Foley et al. [(1965), Cancer 18:522] from peripheral blood buffy coat of a person with acute lymphoblastic leukemia. These cells were continuously maintained in suspension in medium, and have been used widely for analysis of infectivity, antiviral agents and neutralizing antibodies.
Virus: The HIV virus strain employed was HIV-1IIIB, originally designated HTLV-IIIB. Concentrated culture fluids of peripheral blood from several patients with AIDS or related diseases were used to establish a permanent productive infection in H-9 cells. This subtype B virus has high capacity to replicate in human T-cell lines. Viral titer was 5.38 ng per ml in stock solution.
HIV-1 P24 antigen capture assay: An HIV-1 P24 Antigen capture assay kit employed was designed to quantitate the HIV-1 P24 core antigen, which is proportionally related to the degree of viral production in cells. This kit was purchased from the AIDS Vaccine program of the SAIC-NCI-Frederick Cancer Research Institute, P.O. Box B, Frederick, Md. 21702, USA and included 96 well plates coated with monoclonal antibody to HIV-1 P24, primary antibody-rabbit anti-HIV P24 serum, secondary antibody-Goat anti-rabbit-IgG (H+ L) peroxidase conjugated antibody, TMB peroxidase substrate system and lysed HIV-1 P24 standard. The HIV-1 P24 antigen capture assay was analyzed by Organon-Technica ELISA reader at 450 nm with a reference at 650 nm.
HIV-1 P24 antigen capture ELISA: HIV infection was measured with an indirect enzyme immunoassay which detects HIV-1 P24 core antigens in tissue culture media. Tissue culture supernatant was reacted with primary rabbit anti-HIV-1 P24 antigen and visualized by peroxidase conjugated goat anti rabbit IgG. The reaction was terminated by adding 4N H2SO4, wherein the intensity of the color developed is proportional to the amount of HIV-1 antigen present in the tissue culture supernatant.
HIV infection of human cultured CD4+ cells: The cells (CEM, Sup-T1) were preincubated with several increasing concentrations of peptides derived from natural casein (50-1000 μg per ml) or synthetic peptides derived from casein (10-500 μg per ml) for 3, 24 (for synthetic and natural peptides) and 48 (only for natural peptides) hours and HIV-1IIIB (45 μg per ml final concentration) was added to each well thereafter. HIV-1IIIB was preincubated with the peptides for 3 hours and then added to cells (5000 cells/well) in tissue culture plates. Controls were IF (Infected, cells cultured with HIV-1 and without peptides), UIF (Uninfected, cells cultured without HIV-1 and without peptides) and UIF+Ch (Uninfected+peptides derived from natural casein, cells cultured in the presence of peptides derived from natural casein {50-1000 μg per ml}) to test the effect of peptides derived from natural casein and synthetic peptides derived from casein on cell viability and growth. Cells were counted for viability and proliferation rate on day 7, 10 and day 14 post infection (the day of P24 antigen culture supernatant harvest). Cells and tissue culture supernatants (media) were harvested and lysed immediately in 1/10 volume of 10% Triton X-100. […]

HIV-1IIIB [6] = assay: Inhibition of HIV-1 infection of Sup-T1 cells; format: cell-based
Experimental: as §1, §2
as §3, with “Sup-T1. […]” for “Sup-T1.”
HIV-1 P24 antigen capture assay: An HIV-1 P24 Antigen capture assay kit employed was designed to quantitate the HIV-1 P24 core antigen, which is proportionally related to the degree of viral production in cells. […] The HIV-1 P24 antigen capture assay was analyzed by Organon-Technica ELISA reader at 450 nm with a reference at 650 nm.
HIV-1 P24 antigen capture ELISA: HIV infection was measured with an indirect enzyme immunoassay which detects HIV-1 P24 core antigens in tissue culture media. […]

human bone marrow cells = assay: Colony assays of human bone marrow cells (CFU-GM, erythroid, megakaryocyte, CFU-GEMM); format: cell-based; details: TPO-treated cells without peptides
Experimental: Proliferation of megakaryocyte- and erythroid forming cells from human bone marrow and cord blood cells: A sample of bone marrow from an apparently healthy human being was processed by density gradient separation using Histopaque-107 (Sigma Diagnostics) to obtain a purified population of mononuclear cells (MNC). […]
Colony assay medium containing 10^5 MNC per ml was plated in triplicate wells within a 24 well tissue culture plate (Greiner), 0.33 ml per well. […] Plates were scored after 14 days for colonies containing more than 50 cells. […]
Megakaryocytopoiesis was measured in normal bone marrow cells from healthy consenting human donors by either scoring of the number of megakaryocytes in samples of liquid culture (RPMI-1640 plus 10% human AB serum, glutamine and antibiotics) with or without 100 μg per ml peptides derived from natural casein, or in a methylcellulose assay for assessing colony formation. […] In the methylcellulose assay megakaryocytes were counted with an inverted microscope on days 12-14 after seeding.

Row | Substance | megakaryocyte formation and development [1] | IPGT test result (in words) [2] | IPGT TEST 0 min. (pre-load), plasma glucose [2] | HDL [3] [mg/dL] | prevention of glucosuria (in words) [4] | Healthy/Total* (healthy and well = sugar not detected in urine) [4] | cell counts (HIV-1IIIB [5]; 10 μg per ml, 3 hours pretreatment) | HIV-1 infection level, P24 antigen (HIV-1IIIB [5]; 10 μg per ml) [ng P24 Ag per ml] | cell counts (HIV-1IIIB [5]; 25 μg per ml, 3 hours pretreatment) | HIV-1 infection level, P24 antigen (HIV-1IIIB [5]; 25 μg per ml) [ng P24 Ag per ml] | resistance of CEM cells to HIV-1 infection (in words) (HIV-1IIIB [5]; 3 hours pretreatment) | macrophages, % of total cell count ([1]; approximately 17% in unincubated controls) [%] | increase in lymphocyte cell number in infected cells (HIV-1IIIB [6]; 250 μg) [%] | increase in lymphocyte cell number in infected cells (HIV-1IIIB [6]; 500 μg per ml) [%] | megakaryocyte (MK) colonies (human bone marrow cells) [colonies per 2×10^5 cells]
1 | RPKHPIKHQGL [2a] | significant increase | The other two mice remained within normal glycemic range | 95 | 40 | highly effective | 4/5 |  |  |  |  |  |  |  |  | 
2 | RPKHP [3P] | significant increase |  |  | 41 |  |  | 1.17 ×10^6 | 0.26 | 1.26 ×10^6 | 0.18 | significant inhibition of HIV-1 infection |  |  |  | 
3 | RPKHPIKHQ [X] |  | no evidence of abnormal glucose metabolism | 94 |  | highly effective | 3/5 |  |  |  |  |  | ~30 | 80 | 33 | 
4 | TPO: thrombopoietin, hematopoietic growth factor that stimulates megakaryocyte colony formation |  |  |  |  |  |  |  |  |  |  |  |  |  |  | 16
